Measured values from PMC10998878, “Inhibition of acyl-CoA binding protein (ACBP) by means of a GABAARγ2-derived peptide” (Cell Death & Disease, 2024).
Entries after “also recorded” stand apart in the source; their conditions may differ.

Tests used:
Huh-7 cells = assay: WST-8 conversion (metabolic activation) by Huh-7 cells; assay type: cell-based, human; settings: RecACBP/DBI pre-incubated overnight with eicosapeptide, 4 h
Procedure: Media and cell culture supplements were purchased from Gibco-Invitrogen (Carlsbad, CA, USA). Plasticware was purchased from Corning B.V. Life Sciences (Schiphol-Rijk, The Netherlands). Unless reported otherwise, the cell line used in this study was cultured at standard conditions (37 °C, 5% CO2, Dulbecco’s modified Eagle’s medium containing 10% fetal bovine serum, 10 mM HEPES buffer, 100 mg/L sodium pyruvate, 100 U/mL penicillin G sodium, and 100 µg/mL streptomycin sulfate). 2-deoxy-D-glucose (# D8375) and rotenone (# R8875) were purchased from Sigma (Burlington, MA, USA). Human hepatocellular carcinoma (Huh-7) cell line was used for in vitro experiments. Cells were plated in 6- or 96-well plates and grown for 24 h before treatments.
WST-8 conversion assays were conducted utilizing the Cell Counting Kit-8 (Sigma-Aldrich, #96992). Cells were seeded in a 96-well plate at a density of 3000 cells per well and incubated overnight for adherence. Then, the culture medium was removed, and fresh medium containing the specified treatments was added to the wells. Immediately following the addition of treatments, 10 μL of CCK-8 reagent was introduced to each well. Subsequently, the cells were incubated for 4.5 h at 37 °C to facilitate the conversion of WST-8 in response to cellular activity. Following the incubation period, the absorbance at 450 nm was quantified using a VICTOR® Nivo™ microplate reader. This measurement served as an indicator of WST-8 conversion, reflecting cellular metabolic activity.
Fig. 6 Inhibition of the metabolic effects of ACBP/DBI on hepatocytes by the GABAARγ2-derived eicosapeptide. A WST-8 conversion by murine primary hepatocytes treated with increasing concentrations of recombinant ACBP/DBI protein (RecACBP/DBI) for 4 h. Hepatocytes were isolated from tamoxifen-induced Acbp/Dbi f/f or Acbp/Dbi KO full-body genetic background mice (white- or blue-colored graphs respectively). […] For statistical analysis p values are calculated by one-way ANOVA. B WST-8 conversion by control (shUNR) and ACBP/DBI-knocked down (shACBP/DBI) human Huh-7 cells treated with increasing concentrations of RecACBP/DBI for 4 h. shUNR and shACBP/DBI cells are represented by white- or blue-colored graphs respectively. […] C WST-8 conversion by Huh-7 cells treated with RecACBP/DBI or negative control (4 h). Cells were pre-treated with 2-deoxy-D-glucose (2-Deoxy-D-glu; 300 µM) or vehicle (2 h). […] D WST-8 conversion by Huh-7 cells treated with RecACBP/DBI or negative control (4 h). Cells were pre-treated with rotenone (0.5 µM) or vehicle (2 h). […] E WST-8 conversion by Huh-7 cells treated with RecACBP/DBI or negative control (4 h). Prior to administration, RecACBP/DBI was overnight pre-incubated with monoclonal antibody (α-ACBP/DBI) or isotype IgG1. […] F WST-8 conversion by Huh-7 cells treated with RecACBP/DBI or negative control (4 h). Prior to administration, RecACBP/DBI was overnight pre-incubated with GABAARγ2 (WT or F77I-mutated) eicosapeptides.

[1] = target: T1, recombinant murine ACBP/DBI (Mus musculus, UniProt P31786); assay: Surface plasmon resonance (Biacore 2000) real time interaction analysis; assay type: binding; settings: for interaction with recombinant ACBP/DBI, in words: surface plasmon resonance, HBS-EP pH 7.4, 25 °C, 10 µM and 100 µM peptide
T1 construct: biotin (biotinylated); purchased Institute of Psychiatry and Neuroscience of Paris, France
T1 sequence (P31786 1-87): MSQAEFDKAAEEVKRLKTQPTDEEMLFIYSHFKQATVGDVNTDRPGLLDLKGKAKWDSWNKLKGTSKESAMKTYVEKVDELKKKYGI
Procedure: Kinetics of interaction of recombinant murine ACBP/DBI (Institute of Psychiatry and Neuroscience of Paris, France) with GABAARγ2 -derived eicosapeptide or its mutated derivative (synthesized by Biosynth ltd) was analyzed by surface plasmon resonance-based biosensor system – Biacore 2000 (Cytiva Life Sciences, Biacore, Uppsala, Sweden). SA sensor chip (Cytiva Life Sciences, Biacore) was activated by three consequent injections of 1 M NaCl, 0.05 M NaOH solution. After washing the sensor chip surface, biotinylated ACBP/DBI was immobilized on it. ACBP was diluted in HBS-EP buffer (10 mM HEPES […], 150 mM NaCl, 3 mM EDTA, and 0.005% Tween-20) at final concentration of 10 µg/mL and injected for 5 min contact time. The achieved immobilization density of ACBP was 1600 resonance units.
All analyses were performed in HBS-EP buffer (0.01 M HEPES pH 7.4, 0.15 M NaCl, 3 mM EDTA, 0.005% v/v Surfactant P20; 0.22 µm filtered and degassed). The system was run at flow rate of 30 μL/min. The temperature on chip surface was set to 25 °C. GABAARγ2-derived eicosapeptide or its mutated derivative (both stocked in DMSO at 1 mg/mL) were diluted in HBS-EP to 10 µM and 100 µM. The peptides were injected over immobilized ACBP/DBI and a control surface (streptavidin alone). The association and dissociation phases of the interaction were followed for 4 and 5 min, respectively. The interaction of peptides with ACBP/DBI was assessed by monitoring the dissociation from the immobilized protein. For visualization of the binding response Graph Pad Prism software was used.

C57BL/6 mice = assay: Food intake after intravenous injection; assay type: in vivo, mouse; settings: i.v., RecACBP/DBI 0.5 mg/kg + peptide 5× molar excess (pre-incubated 16 h, 4 °C), cumulative food intake 30 min
Procedure: Prior to experimentation, mice were subjected to 24 h starvation followed by individual housing and acclimatization in individual cages (2 h). Subsequently, mice were intravenously (i.v.) injected with recombinant ACBP/DBI protein (RecACBP/DBI) (total volume of 200 μL, 0.5 mg/kg body weight), either alone or in combination with GABAARγ2 peptides (5× molar excess). Cumulative food intake was then analyzed as previously described. Prior to i.v. injections, the RecACBP mixes were pre-incubated (16 h, 4 °C) with GABAARγ2 peptides.

INMEYTIDIFFAQTWYDRRL [GABAARγ2-EP-WT]
inhibition of RecACBP/DBI-stimulated WST-8 conversion (eicosapeptides) (Huh-7 cells; n = 3): inhibited the ACBP/DBI-stimulated metabolic activation of Huh7 cells; also recorded: efficiently blocked the effects of recombinant human ACBP/DBI protein on human hepatocytes | inhibition of RecACBP/DBI-stimulated WST-8 conversion (eicosapeptides) (Huh-7 cells; n = 3, listed as GABAARγ2-derived eicosapeptide): inhibited the metabolic activation of hepatocytes by recombinant ACBP/DBI protein in vitro | association with immobilized ACBP/DBI (SPR) ([1]; biotinylated recombinant ACBP/DBI on SA chip (1600 RU), peptide 10 µM and 100 µM in HBS-EP, pH 7.4, 25 °C, 30 μL/min, association 4 min, WT vs F77I): associated more rapidly | dissociation from immobilized ACBP/DBI (SPR) ([1]; biotinylated recombinant ACBP/DBI on SA chip (1600 RU), peptide 10 µM and 100 µM in HBS-EP, pH 7.4, 25 °C, 30 μL/min, dissociation 5 min, WT vs F77I): dissociated more slowly from ACBP/DBI than GABAARγ2-EP-F77I | interaction with recombinant ACBP/DBI, in words [1]: efficiently interacts with native and recombinant ACBP/DBI; also recorded: able to interact with ACBP/DBI | interaction with recombinant ACBP/DBI, in words ([1]; listed as GABAARγ2-derived eicosapeptide): validated the interaction | effect on RecACBP/DBI-induced hyperphagy (C57BL/6 mice; n = 4 to 9): abolished; also recorded: efficiently blocked | effect on RecACBP/DBI-induced hyperphagy (C57BL/6 mice; n = 4 to 9, listed as GABAARγ2-derived eicosapeptide): blocked appetite stimulation by recombinant ACBP/DBI in vivo
